Results on five molecules are retold here after US9050347B2, “1,2,4-oxadiazole derivatives as drugs modulating the GLP-1 peptide receptor” (VIVIABIOTECH, S.L., priority 2011, dated 2015).

Experiment [1] concerns rat insulinoma cells (INS1E cells). As to the kind of experiment: In vitro insulin secretion assay in INS1E cells. The settings on record: for enhancement of glucose-dependent insulin release caused by GLP-1 / direct activation of glucose-activated insulin secretion: rat insulinoma cells; for enhancement of glucose-dependent insulin release caused by GLP-1: GLP-1 10 nM, FIG. 3; for direct activation of glucose-activated insulin secretion: compound alone, FIG. 2. Format: cell-based. As to the method:
The insulin secretion studies were performed in INS1E cells cultured in RPMI 1640 medium (Invitrogen, Switzerland) containing 11 mM glucose. The culture medium was supplemented with 10 mM Hepes (pH 7.3), 10% (v/v) heat-inactivated fetal bovine serum (Brunschwig AG, Switzerland), […] b-mercaptoethanol, 1 mM sodium pyruvate, […] penicillin and […] streptomycin (INS medium). Static secretion studies were performed in culture plates with a diameter of 2.5 cm in which the cells were grown until reaching confluence criteria. The in vitro studies allowed identifying compounds with intrinsic capacity to release insulin (FIG. 2) or which enhance the incretin actions of GLP-1 (FIGS. 3, 4 and 5).

Experiment [2] is described as follows: Parenteral glucose overload assay. Format: in vivo, male Wistar rats. As to the method: All the in vivo experiments were performed using male Wistar rats with a weight of 200-450 g. The animals were housed in individual cages in a room with controlled temperature (23° C.) and humidity (50%) with a 12/12 light and dark cycle. The animals had water and food ad libitum except in specific experimental procedures. The animals were handled once a day during the two days before the experimental sessions. All the products were dissolved in a mixture of 5% DMSO, 5% Tween 60/90% saline and intraperitoneally administered. The vehicle was 0.9% sterile saline for the parenteral glucose overload.
The parenteral glucose overload assay was performed in male Wistar rats (Harlan, Barcelona) deprived of food for 18 hours. The animals received an injection of sterile saline containing glucose which was administered at the dose of 2 gr/kg in a volume of 2 ml/kg. The plasma glucose levels were measured by means of glucometers in tail blood using reactive strips of glucose oxidase, at times 0, 5, 10, 15, 30, 45, 60 and 120 minutes after the administration of glucose. The animals received an injection of the drugs under study 15 minutes before the administration of intraperitoneal glucose. After measuring the glucose, an analysis under the curve for compound and dose was performed. This analysis allows evaluating the time intensity of the hyperglycemia. […]

`CC(=O)NCC[C@@H]1CCCCN1Cc1nc(-c2ccc(C(F)(F)F)cc2)no1` [Compound C3, N-[2-[(2S)-1-[[3-[4-(trifluoromethyl)phenyl]-1,2,4-oxadiazol-5-yl]methyl]piperidin-2-yl]ethyl]acetamide]: the “enhancement of glucose-dependent insulin release caused by GLP-1” value (“enhancement” below) in experiment [1] is reported as “enhance”.
As to `NC(=O)C1CCN(Cc2nc(-c3ccc(C(F)(F)F)cc3)no2)CC1` [Compound C4, 1[[3-[4-(trifluoromethyl)phenyl]-1,2,4-oxadiazol-5-yl]methyl]piperidin-4-carboxamide], in experiment [1], the “enhancement” value is given as “enhance” and the “direct activation of glucose-activated insulin secretion” value (“direct activation” for short) is “direct activators”.
Turning to `FC(F)(F)c1ccc(-c2noc(CN3CCCC(CN4CCOCC4)C3)n2)cc1` (stereo not shown) [Compound C6, 4-[[1[[3-[4-(trifluoromethyl)phenyl]-1,2,4-oxadiazol-5-yl]methyl]piperidin-3-yl]methyl]morpholine], in experiment [1] (insulinoma cells, 0.2 nM GLP-1, increasing compound concentration, FIG. 5), the “allosteric modulation of insulin secretion stimulated by a fixed concentration of GLP-1” value is given as “enhances in a dose-dependent manner”. The “allosteric modulation of insulin release stimulated by increasing doses of GLP-1” value in experiment [1] (insulinoma cells, compound at 0.1 nM, FIG. 4) was “enhances”. Moreover, in experiment [1], the “enhancement” value is reported as “enhance” and the “direct activation” value is listed as “direct activators”. Also, the “physiological response (glycemia) in the parenteral glucose overload test” value in experiment [2] (rats deprived of food for 18 hours, glucose 2 gr/kg, compound 15 minutes before, FIG. 6) was “improves the physiological response”. In addition, the “intensity of the hyperglycemia (area under the curve of the glycemia)” value in experiment [2] (rats, parenteral glucose overload test, several doses, FIG. 7) is on record as “induces in a dose-dependent manner a reduction of the intensity of the hyperglycemia”.
Take `O=C(CCc1ccccc1)[C@@H]1CCCN(Cc2nc(-c3ccc(C(F)(F)F)cc3)no2)C1` [Compound C1, 3-phenyl-1-[(3R)-1-[[3-[4-(trifluoromethyl)phenyl]-1,2,4-oxadiazol-5-yl]methyl]piperidin-3-yl]propan-1-one]: in experiment [1], the “enhancement” value is reported as “enhance” and the “direct activation” value is given as “direct activators”.
As to `FC(F)(F)c1ccc(-c2noc(CN3CCCC[C@H]3CCc3ccccn3)n2)cc1` [Compound C5, 5-[[(2S)-2-(2-pyridin-2-ylethyl)piperidin-1-yl]methyl]-3-[4-(trifluoromethyl)phenyl]-1,2,4-oxadiazole], in experiment [1], the “enhancement” value was “enhance” and the “direct activation” value is reported as “direct activators”.
